Laboratory results: ChEMBL document CHEMBL1201862, “PubChem BioAssay data set” (2004)
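Following 48 hours of exposure in 96-well plates, responses at five concentrations were used to interpolate endpoints linearly. The concentration for 50% growth inhibition is given as GI50.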 Calls of active or inactive are those of the source. Rule as the data show it: active = GI50 up to about 1.1 µM and inactive = higher.

Key:
Experiment in all cases: NCI anticancer screen, dose series, 48 h
[1] = tested on: COLO 205
[2] = tested on: NCI-H23
[3] = tested on: OVCAR-3
[4] = tested on: SF-295
[5] = tested on: RXF 393
[6] = tested on: NCI/ADR-RES
[7] = tested on: HL-60
[8] = tested on: UACC-257
[9] = tested on: TK-10
[10] = tested on: OVCAR-4
[11] = tested on: MCF7
[12] = tested on: LOX IMVI
[13] = tested on: OVCAR-8
[14] = tested on: MDA-MB-435
[15] = tested on: KM-20L2
[16] = tested on: HOP-18
[17] = tested on: SN12C
[18] = tested on: DMS-273
[19] = tested on: NCI-H226
[20] = tested on: HCT-116

Measured: GI50

CCOC(=O)c1csc(NC(=O)CN2CCCCC2)n1
inactive: [1] > 100 µM | [2] > 100 µM | [3] > 100 µM | [4] > 100 µM | [5] > 100 µM | [6] > 100 µM | [7] > 100 µM | [8] > 100 µM | [9] > 100 µM | [10] > 100 µM | [11] > 100 µM | [12] > 100 µM | [13] > 100 µM | [14] > 100 µM

COC(=O)NN1C(=O)C(=P(c2ccccc2)(c2ccccc2)c2ccccc2)C(C(=O)OC)=C1C
inactive: [1] > 100 µM | [2] > 100 µM | [3] > 100 µM | [4] > 100 µM | [15] > 100 µM | [16] > 100 µM | [17] > 100 µM | [7] 52.5 µM | [9] > 100 µM | [18] > 100 µM | [12] > 100 µM | [13] > 100 µM | [19] > 100 µM

COc1ccc(N[C@H](C[S+]([O-])c2ccc(C)cc2)C(F)(F)C(F)(F)F)cc1 (stereo partly drawn)
inactive: [1] > 100 µM | [2] 43.5 µM | [3] > 100 µM | [4] 62.4 µM | [5] 4.21 µM | [17] > 100 µM | [6] > 100 µM | [7] > 100 µM | [8] > 100 µM | [9] > 100 µM | [10] 95.7 µM | [11] > 100 µM | [12] 91.4 µM | [13] 90.6 µM | [14] > 100 µM | [20] 52.4 µM | [19] 31 µM

CCCCOc1ccc2c(c1)CC[C@@H]1[C@@H]2CC[C@]2(C)C(=O)N(CCCC)C(=O)C[C@@H]12
inactive: [1] 91.8 µM | [2] > 100 µM | [3] > 100 µM | [4] > 100 µM | [17] > 100 µM | [6] > 100 µM | [7] 44.4 µM | [11] > 100 µM | [13] > 100 µM | [14] > 100 µM | [20] > 100 µM | [19] > 100 µM

NCCCCNOCCCN
inactive: [1] > 100 µM | [2] > 100 µM | [3] > 100 µM | [4] > 100 µM | [5] > 100 µM | [17] > 100 µM | [6] > 100 µM | [8] > 100 µM | [9] > 100 µM | [10] > 100 µM | [11] > 100 µM | [12] > 100 µM | [13] > 100 µM | [14] > 100 µM | [20] > 100 µM | [19] > 100 µM

NCc1ccccc1-c1c2nc(c(-c3ccccc3CN)c3ccc([nH]3)c(-c3ccccc3CN)c3nc(c(-c4ccccc4CN)c4ccc1[nH]4)C=C3)C=C2
inactive: [1] 29.8 µM | [2] 21.8 µM | [3] 16.2 µM | [5] 13.1 µM | [15] 19.7 µM | [16] 1.18 µM | [17] 18.7 µM | [7] 14.5 µM | [8] 20.3 µM | [9] 27.5 µM | [18] 7.36 µM | [10] 19.4 µM | [12] 19.7 µM | [13] 37 µM | [20] 13.7 µM | [19] 13.9 µM
